Experimental data published in US9963464B2, “Macrocyclic compounds” (Bayer Pharma Aktiengesellschaft, priority 2014, dated 2018).
Like-named read-outs stand apart in the source and are kept apart here.

Columns and labels:
CDK9/CycT1 = biological target: T1, CDK9/CycT1 (Homo sapiens, UniProt P50750); assay: CDK9/CycT1 high ATP kinase assay (TR-FRET, Method 1b); format: biochemical; conditions: for IC50: Method 1b, 2 mM ATP; for Selectivity high ATP CDK9 over high ATP CDK2: IC50 (high ATP CDK2)/IC50 (high ATP CDK9): Methods 1b and 2b, minimal values where CDK9 IC50 is at the assay limit
T1 construct: Recombinant full-length His-tagged human CDK9 and CycT1; His; purchased Invitrogen PV4131; host or cells: insect cells
Protocol: 1b. CDK9/CycT1 High ATP Kinase Assay
CDK9/CycT1-inhibitory activity of compounds of the present invention at a high ATP concentration after preincubation of enzyme and test compounds was quantified employing the CDK9/CycT1 TR-FRET assay as described in the following paragraphs.
Recombinant full-length His-tagged human CDK9 and CycT1, expressed in insect cells and purified by Ni-NTA affinity chromatography, were purchase from Invitrogen (Cat. No PV4131). As substrate for the kinase reaction biotinylated peptide biotin-Ttds-YISPLKSPYKISEG (C-terminus in amid form) was used which can be purchased e.g. from the company JERINI peptide technologies (Berlin, Germany). For the assay 50 nl of a 100 fold concentrated solution of the test compound in DMSO was pipetted into a black low volume 384 well microtiter plate (Greiner Bio-One, Frickenhausen, Germany), 2 μl of a solution of CDK9/CycT1 in aqueous assay buffer [50 mM Tris/HCl pH 8.0, 10 mM MgCl2, 1.0 mM dithiothreitol, 0.1 mM sodium ortho-vanadate, 0.01% (v/v) Nonidet-P40 (Sigma)] were added and the mixture was incubated for 15 min at 22° C. to allow pre-binding of the test compounds to the enzyme before the start of the kinase reaction. […] The concentration of CDK9/CycT1 was adjusted depending of the activity of the enzyme lot and was chosen appropriate to have the assay in the linear range, typical concentrations were in the range of 0.5 μg/mL. The reaction was stopped by the addition of 5 μl of a solution of TR-FRET detection reagents (0.2 μM streptavidine-XL665 [Cisbio Bioassays, Codolet, France] and 1 nM anti-RB(pSer807/pSer811)-antibody from BD Pharmingen [#558389] and 1.2 nM LANCE EU-W1024 labeled anti-mouse IgG antibody [Perkin-Elmer, product no. AD0077]) in an aqueous EDTA-solution (100 mM EDTA, 0.2% (w/v) bovine serum albumin in 100 mM HEPES pH 7.5).
The resulting mixture was incubated 1 h at 22° C. to allow the formation of complex between the phosphorylated biotinylated peptide and the detection reagents. Subsequently the amount of phosphorylated substrate was evaluated by measurement of the resonance energy transfer from the Eu-chelate to the streptavidine-XL. Therefore, the fluorescence emissions at 620 nm and 665 nm after excitation at 350 nm was measured in a HTRF reader, e.g. a Rubystar (BMG Labtechnologies, Offenburg, Germany) or a Viewlux (Perkin-Elmer). The ratio of the emissions at 665 nm and at […] was taken as the measure for the amount of phosphorylated substrate. The data were normalised (enzyme reaction without inhibitor=0% inhibition, all other assay components but no enzyme=100% inhibition).

DU145 cells = assay: Proliferation assay DU145; format: cell-based, human; conditions: 4 days, crystal violet, read-out: Inhibition of DU145 cell proliferation IC50
Protocol: Cultivated tumour cells (HeLa, human cervical tumour cells, ATCC CCL-2; NCI-H460, human non-small cell lung carcinoma cells, ATCC HTB-177; A2780, human ovarian carcinoma cells, ECACC #93112519; DU 145, hormone-independent human prostate carcinoma cells, ATCC HTB-81; HeLa-MaTu-ADR, multidrug-resistant human cervical carcinoma cells, EPO-GmbH Berlin; Caco-2, human colorectal carcinoma cells, ATCC HTB-37; B16F10, mouse melanoma cells, ATCC CRL-6475) were plated at a density of 5,000 cells/well (DU145, HeLa-MaTu-ADR), 3,000 cells/well (NCI-H460, HeLa), 2,500 cells/well (A2780), 1,500 cells/well (Caco-2), or 1,000 cells/well (B16F10) in a 96-well multititer plate in 200 μL of their respective growth medium supplemented 10% fetal calf serum. After 24 hours, the cells of one plate (zero-point plate) were stained with crystal violet (see below), while the medium of the other plates was replaced by fresh culture medium (200 μl), to which the test substances were added in various concentrations (0 μM, as well as in the range of 0.001-10 μM). The cells were incubated for 4 days in the presence of test substances. Cell proliferation was determined by staining the cells with crystal violet: the cells were fixed by adding 20 μl/measuring point of an 11% glutaric aldehyde solution for 15 minutes at room temperature. After three washing cycles of the fixed cells with water, the plates were dried at room temperature. The cells were stained by adding 100 μl/measuring point of a 0.1% crystal violet solution (pH 3.0). After three washing cycles of the stained cells with water, the plates were dried at room temperature. The dye was dissolved by adding 100 μl/measuring point of a 10% acetic acid solution. The extinction was determined by photometry at a wavelength of 595 nm. The change of cell number, in percent, was calculated by normalization of the measured values to the extinction values of the zero-point plate (=0%) and the extinction of the untreated (0 μm) cells (=100%). The IC50 values (inhibitory concentration at 50% of maximal effect) were determined by means of a 4 parameter fit. Non-adherent MOLM-13 human acute myeloid leukemia cells (DSMZ ACC 554) were seeded at a density of 5,000 cells/well in a 96-well multititer plate in 100 μL of growth medium supplemented 10% fetal calf serum. After 24 hours, cell viability of one plate (zero-point plate) was determined with the Cell Titre-Glo Luminescent Cell Viability Assay (Promega), while 50 μL of test compound containing medium was added to the wells of the other plates (final concentrations in the range of 0.001-1 μM and DMSO controls). Cell viability was assessed after 72-hour exposure with the Cell Titre-Glo Luminescent Cell Viability Assay (Promega). IC50 values (inhibitory concentration at 50% of maximal effect) were determined by means of a 4 parameter fit on measurement data which were normalized to vehicle (DMSO) treated cells (=100%) and measurement readings taken immediately before compound exposure (=0%).

T1 sequence (P50750 whole entry): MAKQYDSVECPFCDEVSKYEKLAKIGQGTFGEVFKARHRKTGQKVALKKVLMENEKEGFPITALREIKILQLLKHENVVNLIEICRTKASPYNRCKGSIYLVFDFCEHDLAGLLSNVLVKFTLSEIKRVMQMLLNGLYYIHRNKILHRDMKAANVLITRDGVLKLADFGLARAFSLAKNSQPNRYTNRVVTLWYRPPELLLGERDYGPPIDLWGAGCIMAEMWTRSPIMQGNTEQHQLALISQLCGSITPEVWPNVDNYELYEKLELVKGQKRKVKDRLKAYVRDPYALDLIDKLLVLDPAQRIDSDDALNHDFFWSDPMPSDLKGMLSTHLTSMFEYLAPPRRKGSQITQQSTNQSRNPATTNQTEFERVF
T1 sequence (O60563 whole entry partner): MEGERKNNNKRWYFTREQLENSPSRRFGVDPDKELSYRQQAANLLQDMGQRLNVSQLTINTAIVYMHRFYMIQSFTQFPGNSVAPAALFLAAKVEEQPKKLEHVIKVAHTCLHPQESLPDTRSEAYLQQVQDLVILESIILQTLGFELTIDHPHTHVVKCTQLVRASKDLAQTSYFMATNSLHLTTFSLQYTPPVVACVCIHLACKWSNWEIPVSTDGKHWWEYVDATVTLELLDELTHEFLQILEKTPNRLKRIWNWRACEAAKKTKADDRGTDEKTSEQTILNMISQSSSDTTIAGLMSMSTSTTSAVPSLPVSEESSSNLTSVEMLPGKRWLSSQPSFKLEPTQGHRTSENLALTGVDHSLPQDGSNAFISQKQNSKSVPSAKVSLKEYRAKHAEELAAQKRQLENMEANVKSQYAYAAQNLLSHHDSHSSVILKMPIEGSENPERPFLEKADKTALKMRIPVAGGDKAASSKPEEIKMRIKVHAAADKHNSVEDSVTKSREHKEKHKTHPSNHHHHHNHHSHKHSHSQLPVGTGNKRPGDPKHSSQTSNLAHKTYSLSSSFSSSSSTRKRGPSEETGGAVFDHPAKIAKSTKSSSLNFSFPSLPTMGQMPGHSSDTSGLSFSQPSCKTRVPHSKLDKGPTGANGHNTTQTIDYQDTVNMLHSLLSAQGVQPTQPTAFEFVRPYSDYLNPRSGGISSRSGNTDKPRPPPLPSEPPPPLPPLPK

| SMILES | IC50 (CDK9/CycT1) [nM] | Selectivity high ATP CDK9 over high ATP CDK2: IC50 (high ATP CDK2)/IC50 (high ATP CDK9) (CDK9/CycT1) | IC50 (DU145 cells; trifluoroacetate) [nM] | IC50 (DU145 cells) [nM] | IC50 (DU145 cells; Homo sapiens, DU-145, 96 h) [nM] |
| --- | --- | --- | --- | --- | --- |
| CS(=O)(Cc1cc2nc(c1)OCCCOc1cc(F)ccc1-c1cc(ncc1F)N2)=NS(=O)(=O)CCN (racemic) [Example 23, (rac)-2-amino-N-[{[15,19-difluoro-3,4-dihydro-2H,11H-10,6-(azeno)-12,16-(metheno)-1,5,11,13-benzodioxadiazacyclooctadecin-8-yl]methyl}(methyl)oxido-λ^6-sulfanylidene]ethanesulfonamide] | 3.9 | 69.5 |  | 833 |  |
| NCCS(=O)(=O)Cc1cc2nc(c1)OCCCOc1cc(F)ccc1-c1cc(ncc1F)N2 [Example 26, 2-({[15,19-difluoro-3,4-dihydro-2H,11H-10,6-(azeno)-12,16-(metheno)-1,5,11,13-benzodioxadiazacyclooctadecin-8-yl]methyl}sulfonyl)ethanamine] | 3.4 | 13.0 |  |  | 386 |
| CS(=N)(=O)Cc1cc2nc(c1)OCCCCOc1cc(F)ccc1-c1cc(ncc1F)N2 (racemic) [Example 14, (rac)-16,20-difluoro-9-[(S-methylsulfonimidoyl)methyl]-2,3,4,5-tetrahydro-12H-11,7-(azeno)-13,17-(metheno)-1,6,12,14-benzodioxadiazacyclononadecine] | 3.6 | 45.3 |  |  | 16 |
| C[S+]([O-])Cc1cc2nc(c1)OCCOc1cc(F)ccc1-c1cc(ncc1F)N2 (racemic) [Example 10, (rac)-14,18-difluoro-7-[(methylsulfinyl)methyl]-2,3-dihydro-10H-9,5-(azeno)-11,15-(metheno)-1,4,10,12-benzodioxadiazacycloheptadecine] | 27.8 | 125.7 |  |  | 324 |
| CS(=O)(Cc1cc2nc(c1)OCCCOc1cc(F)ccc1-c1cc(ncc1F)N2)=NC(=O)OCCN (racemic) [Example 25, (rac)-2-aminoethyl [{[15,19-difluoro-3,4-dihydro-2H,11H-10,6-(azeno)-12,16-(metheno)-1,5,11,13-benzodioxadiazacyclooctadecin-8-yl]methyl}(methyl)oxido-λ^6-sulfanylidene]carbamate] | 3 | 6.1 |  |  | 123 |
| CS(=N)(=O)Cc1cc2nc(c1)OCCOc1cc(F)ccc1-c1cc(ncc1F)N2 (racemic) [Example 11, (rac)-14,18-difluoro-7-[(S-methylsulfonimidoyl)methyl]-2,3-dihydro-10H-9,5-(azeno)-11,15-(metheno)-1,4,10,12-benzodioxadiazacycloheptadecine] | 3 | 702 |  |  | 159 |
| CS(=O)(Cc1cc2cc(c1)OCCCOc1cc(F)ccc1-c1nc(ncc1F)N2)=NC(=O)C(F)(F)F (racemic) [Example 16, (rac)-N-[{[15,19-difluoro-3,4-dihydro-2H,11H-12,16-(azeno)-10,6-(metheno)-1,5,11,13-benzodioxadiazacyclooctadecin-8-yl]methyl}(methyl)oxido-λ^6-sulfanylidene]-2,2,2-trifluoroacetamide] | 3.9 | 172 |  |  | 17 |

Now those with a lower IC50 (CDK9/CycT1), led by results:

| IC50 (CDK9/CycT1) [nM] | Selectivity high ATP CDK9 over high ATP CDK2: IC50 (high ATP CDK2)/IC50 (high ATP CDK9) (CDK9/CycT1) | IC50 (DU145 cells; trifluoroacetate) [nM] | IC50 (DU145 cells) [nM] | IC50 (DU145 cells; Homo sapiens, DU-145, 96 h) [nM] | SMILES |
| --- | --- | --- | --- | --- | --- |
| 1.8 | 90.4 | 387 |  |  | CS(=O)(Cc1cc2nc(c1)OCCCOc1cc(F)ccc1-c1cc(ncc1F)N2)=NS(=O)(=O)CCN.O=C(O)C(F)(F)F (racemic) [Example 24, (rac)-2-{[{[15,19-difluoro-3,4-dihydro-2H,11H-10,6-(azeno)-12,16-(metheno)-1,5,11,13-benzodioxadiazacyclooctadecin-8-yl]methyl}(methyl)oxido-λ^6-sulfanylidene]sulfamoyl}ethanaminium trifluoroacetate] |
| 1.9 | 81.7 |  |  | 78 | CN=S(C)(=O)Cc1cc2nc(c1)OCCCOc1cc(F)ccc1-c1cc(ncc1F)N2 (racemic) [Example 19, (rac)-8-[(N,S-dimethylsulfonimidoyl)methyl]-15,19-difluoro-3,4-dihydro-2H,11H-10,6-(azeno)-12,16-(metheno)-1,5,11,13-benzodioxadiazacyclooctadecine] |
| 1.7 | 125.3 |  |  | 10 | CS(=N)(=O)Cc1cc2cc(c1)OCCCCOc1cc(F)ccc1-c1nc(ncc1F)N2 (racemic) [Example 1, (rac)-16,20-Difluoro-9-[(S-methylsulfonimidoyl)methyl]-2,3,4,5-tetrahydro-12H-13,17-(azeno)-11,7-(metheno)-1,6,12,14-benzodioxadiazacyclononadecine] |
| 2.6 | 19.5 |  | 5 |  | CS(=N)(=O)Cc1cc2nc(c1)OCCCOc1cc(F)ccc1-c1cc(ncc1F)N2 (single isomer, unassigned; enantiomer 2) [Example 7, 15,19-Difluoro-8-[(S-methylsulfonimidoyl)methyl]-3,4-dihydro-2H,11H-10,6-(azeno)-12,16-(metheno)-1,5,11,13-benzodioxadiazacyclooctadecine; Enantiomer 2] |
| 1.9 | 123.6 |  |  | 17 | CS(=N)(=O)Cc1cc2cc(c1)OCCCOc1cc(F)ccc1-c1nc(ncc1F)N2 (racemic) [Example 15, (rac)-15,19-difluoro-8-[(S-methylsulfonimidoyl)methyl]-3,4-dihydro-2H,11H-12,16-(azeno)-10,6-(metheno)-1,5,11,13-benzodioxadiazacyclooctadecine] |
